In series [1] the test system is HPV-31 specific RNA. Description: Short-term study: HPV-31 specific RNA expression (Northern blot). The series is classed as cell-based, human papilloma virus. The settings on record: 72 hrs. The method, then:
(§1) Effect on HPV-31 specific DNA and RNA. HPV-31 infected cells (3×10^6) were dispensed into 14.5 cm dishes containing fresh E culture medium and 1×10^6 mitomycin C-treated J2 3T3 fibroblast feeders. After 6 hrs, fresh medium containing 0.85 g/L NaHCO3 and a test compound at a series of concentrations (0, 0.5, 1, 2, 4, 8, 16, and 32 μg/mL) were added. All samples were tested in duplicates at each concentration. After incubation at 37° C. for 72 hrs, the feeder cells were removed with 4 mM EDTA, and DNA and RNA was then isolated. The isolated DNA and RNA were analyzed in Southern and Northern Blot gels for HPV-31 specific sequences. Human A431 epithelial cancer cells were used as HPV-uninfected negative control. X-ray films were scanned and optical densities of HPV-31 specific DNA and major mRNA species were integrated.
(§2) Dose response curves were established by plotting integrated values against the concentrations of the test compound.

For series [2], the system named is HPV-31 specific DNA. Nature of the series: Long-term study: HPV-31 specific DNA level (Southern blot). The format is cell-based, human papilloma virus. The method, then: (§3) HPV-31 infected cells (3×10^6) were dispensed into 14.5 cm dishes containing fresh E medium and 1×10^6 cells of mitomycin C-treated 3T3 fibroblast feeders. The dishes were incubated in a CO2 incubator under 5% CO2 at 37° C. in 100% humidity. Human A431 epithelial cancer cells were used as HPV-uninfected negative controls. After 6 hr incubation, the cell culture medium was removed and fresh E medium containing 0.85 g/L NaHCO3 and a test compound at concentrations of 10 and 3.3 μg/mL, or control (interferon γ at 200 IU/mL) were added. For each concentration, 4 dishes were prepared. The dishes were incubated at 37° C. in a CO2 incubator. The culture medium was replaced to new E medium containing each concentration of the test compound or control in every 72 hrs. After seven days, or when untreated cells became confluent, one dish of each group was harvested for DNA/RNA extraction, followed by Southern/Northern Blot analysis; and one dish was trypsinized, cell number were determined and cells were seeded in three new dishes, treated and cultured as described above. This procedure was repeated for 9 passages. During these passages, morphology of cells and cell density were monitored.
(§4) Effect on HPV-31 specific DNA and RNA: DNA and RNA were analyzed in Southern and Northern Blot gels for HPV-31 specific sequences. X-ray films were scanned and optical densities of HPV-31 specific DNA and major mRNA species were integrated. Time curves were established by plotting integrated values against number of passages for each treatment dose. The T50 (time required to reduce the level to 50% of control) was determined from the time curves from crossing points of time curves with a line parallel to the x-axis corresponding to 50% of integrals of untreated control sample.

The test system of series [3] is HPV-31 specific RNA. Nature of the series: Long-term study: HPV-31 specific RNA level (Northern blot). The format is cell-based, human papilloma virus. The method, then:
as §3, §4

The target in series [4] is T1, phosphatidylcholine-specific phospholipase C (PC-PLC) (Bacillus cereus, UniProt P09598).
T1 construct: purchased Invitrogen
Description: Amplex Red phosphatidylcholine-specific phospholipase C (PC-PLC) inhibition assay. The settings on record: 30 min at 37° C., triplicate. The series is classed as biochemical, B. cereus. The method, then: The inhibitory activities of optically active potassium salts of (+)- and (−)-O-exo/C-exo-tricyclo [5.2.1.0^2,6]-dec-9-yl-xanthic acid 1A ((+)- and (−)-enantiomers 1A) against phosphatidylcholine-specific phospholipase C were evaluated, together with D609 and potassium salt of racemic O-exo/C-exo xanthic acid 1A (racemic 1A), using Amplex Red phosphatidylcholine-specific phospholipase C(PC-PLC) assay kit, which was obtained from Invitrogen (Calsbad, Calif.). D609 was obtained from Sigma Aldrich.
An Amplex Red stock solution (˜20 mM), a working reaction buffer, and a horseradish peroxidase stock solution (200 U/mL), a H2O2 working solution (20 mM), a choline oxidate stock solution (20 U/mL), an alkaline phosphatase stock solution (400 U/mL), and a B. cereus PC-PLC stock solution (10 U/mL) were prepared according to the instruction of the assay kit. The stock solution (100 mg/mL) for each test compound was also prepared by dissolving the compound in water 2 hr prior to the start of the experiment.
A working Amplex Red/HRP/lecithin solution was prepared by adding 200 μL of Amplex Red reagent stock solution, 100 μL of HRP stock solution, 200 μL of alkaline phosphatase stock solution, 100 μL of choline oxidase stock solution, and 78 μL of the lecithin solution to […] of the working reaction buffer. PC-PLC solution (0.2 U/mL) was prepared by diluting the PC-PLC stock solution with the working reaction buffer to the desired concentration.
The test compound (25 μL) at a serious of concentrations was pipetted into a 96 well plate. For uninhibited PC-PLC controls and non-PC-PLC controls, 25 μL of water was added. After the addition of 50 μL of the Amplex Red/HRP/lecithin working solution, the reaction was initiated by adding 25 μL of PC-PLC solution to each well. To the non-PC-PLC controls, 25 μL of water was added instead of PC-PLC solution. The experiment was performed in triplicate. The reactions were protected from light. After incubated for 30 min at 37° C., the reactions were measured with a fluorescence microplate reader using excitation at 550 nm and emission detection at 590 nm. The fluorescent data obtained were corrected for background fluorescence by subtracting the values obtained from the non-PC-PLC controls.

Series [5] has as its system HPV-31-infected CIN612 9E keratinocytes. Description: Long-term study: cell proliferation and morphology of CIN612 9E cells over 9 passages. The series is classed as cell-based. The method, then: as §3
Effect on cell proliferation. Cell numbers in the dishes harvested were determined in a Neubauer hematocytometer. The multiplication factor was determined at every step of passage. The cell number of each culture at the end of the passage was divided by the number of seeded cells at the start of each passage. The end point was reached when keratinocytes treated with a test compound stopped growing. Stop of cell growth was defined as a multiplication factor of no greater than 1.

For series [6], the system named is Calu-6 cells. Description: Cytotoxicity assay in Calu-6 cells (crystal violet). As to conditions: 48 hr. The format is cell-based. The method, then: Calu-6 cells and RITA cells were grown in DMEM cell culture medium containing 10% fetal calf serum in CO2 incubator under 5% CO2 at 37° C. with 100% humidity.
For cytotoxicity assay, Calu-6 cells were seeded in 96 well plates at a density of 3×10^6 cells per plate in the DMEM cell culture medium. The plates were incubated at 37° C. in the presence of 5% CO2 for 24 hr. The DMEM cell culture medium in the plates was exchanged with fresh DMEM cell culture medium containing test compounds at a series of concentrations. The plates were incubated at 37° C. in the presence of 5% CO2 for 48 hr. The plates were then washed with PBS, fixed with 3% formaldehyde solution containing 0.9% NaCl for 1 min, washed by water for 10 sec, and dried overnight. For detection, the plates were stained with crystal violet solution for 5 min at room temperature, washed 5 times with water, and dried at room temperature overnight. After adding ethanol/acetic acid (99:1, v/v, […]) to each well, the plates were measured at 595 nm using an ELISA reader. A dose response curve was obtained for each compound tested by plotting the mean values of the optical densities against compound concentration.

The subject of series [7] is HPV-31 specific DNA. Nature of the series: Short-term study: HPV-31 specific DNA (Southern blot). The format is cell-based, human papilloma virus. As to conditions: at 32 μg/mL, 72 hrs. The method, then: as §1, §2
For series [8], the system named is HPV-31-infected CIN612 9E keratinocytes. Description: Short-term study: growth of HPV-31-infected CIN612 9E keratinocytes (crystal violet). The series is classed as cell-based. As to conditions: at 200 UI/mL, 72 hrs. The method, then:
The inhibitory activities of optically active (−)-enantiomer 1A against human papilloma virus were evaluated using HPV-31-infected CIN612 9E keratinocytes (Meyers et al., Science 1992, 257, 971-973).
Effect on cell proliferation. HPV-31 infected cells were seeded in 96-well plates containing 1×10^6 mitomycin C treated 3T3 cells (1×10^4 cells/well), at a density of 0.5×10^6 cells per plate (0.5×10^4 cells/well) in E medium. After the plates were incubated in a CO2 incubator under 5% CO2 at 37° C. in 100% humidity for six hrs, the cell culture medium was removed and fresh E medium containing 0.85 g/L NaHCO3 and a test compound at a series of concentrations (0, 0.5, 1, 2, 4, 8, 16, 32, 64, and 128 μg/mL), or positive control (interferon γ at 200 IU/mL) was added. […] After the plates were dried on blotting paper upside down overnight, 0.1 mL of ethanol/acetic acid (99:1) was added to each well and optical density at 595 nm was determined in an ELISA reader.
Dose response curves were established by plotting growth against concentrations of the test compound or control. ICso values were determined from the dose response curves from crossing points of the dose response curves with a line parallel to the x-axis corresponding to 50% of uninhibited growth.

Where [9] appears, read: at 10 μg/mL, listed as (−)-enantiomer 1A.

In brackets after ≈: the same amount, converted by molar mass.

T1 sequence (P09598 39-283 limits assumed): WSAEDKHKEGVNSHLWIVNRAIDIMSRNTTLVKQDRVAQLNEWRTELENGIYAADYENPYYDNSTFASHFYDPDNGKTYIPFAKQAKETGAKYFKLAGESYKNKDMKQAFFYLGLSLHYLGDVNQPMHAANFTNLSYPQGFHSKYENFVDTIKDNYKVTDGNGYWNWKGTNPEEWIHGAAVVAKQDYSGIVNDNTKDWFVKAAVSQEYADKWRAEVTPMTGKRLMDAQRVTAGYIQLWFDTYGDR

For the molecule `S=C(S)OC1CC2CC1C1CCCC21` (single isomer, unassigned; enantiomer 1a) [(−)-Enantiomer 1A, (−)-O-exo/C-exo-tricyclo[5.2.1.0^2,6]-dec-9-yl-xanthic acid 1A], the “IC50 on the inhibition of HPV-31 specific RNA expression” value in series [1] came out at 10.7 µg/mL. Also, in series [2] (10 μg/mL, after 6 passages), the “number of viral genomes per cell remaining” value is under 5%. In series [2] (10 μg/mL, after 9 passages), the “viral DNA remaining” value is on record as under 1%. Further, the “reduction of the number of viral genomes per cell” value in series [2] (10 μg/mL, after a single passage) is reported as “more than 50%”. The “T50 DNA” value in series [2] (setting [9]) is given as under 1 passages; in series [2] (at 10 μg/mL, listed as Cmpd 1A), under 1 passages. In series [3] (10 μg/mL, after 9 passages), the “viral RNA remaining” value is given as under 1%. In addition, the “T50 RNA” value in series [3] (setting [9]) was under 1 passages; in series [3] (at 10 μg/mL, listed as Cmpd 1A), under 1 passages. The molecule also gave an IC50 in series [4] of 3.62 ± 0.17 µg/mL (≈ 15.9 µM). In addition, the multiplication factor in series [5] (3.3 μg/mL, passage 1) is given as 2.9; in series [5] (3.3 μg/mL, passage 9), 1.1; in series [5] (10 μg/mL, from passage 7 on), under 1; in series [5] (10 μg/mL, passage 5) it was 2.4; in series [5] (10 μg/mL, passage 6), 1.3; in series [5] (10 μg/mL, passage 9), 0.1. Further, the LD50 in series [6] was 94.32 ± 7.33 µg/mL. In addition, the “inhibition of HPV-31 specific DNA” value in series [7] is 37.5%.

B1: INF-γ: interferon γ, positive control at 200 IU/mL (protein, UniProt P01579 24-161, looked up)
Interferon gamma: QDPYVKEAENLKKYFNAGHSDVADNGTLFLGILKNWKEESDRKIMQSQIVSFYFKLFKNFKDDQSIQKSVETIKEDMNVKFFNSNKKKRDDFEKLTNYSVTDLNVQRKAIHELIQVMAELSPAAKTGKRKRSQMLFRG
With B1, the “T50 DNA” value in series [2] (at 200 IU/mL) stood at 2.7 passages. Besides, the “T50 RNA” value in series [3] (at 200 IU/mL) stood at 3.36 passages. For the same molecule, the “inhibition of the growth of HPV-31-infected CIN612 9E keratinocytes” value in series [8] is recorded as “about 50%”. The multiplication factor in series [5] (200 IU/mL, first cell passage) is on record as 0.8; in series [5] (200 IU/mL, second passage), 2.4.

The record behind these values is patent US20100240746A1, “STEREOISOMERS OF TRICYCLODECAN-9-YL-XANTHOGENATE” (LUMAVITA AG, priority 2007, published 2010).
